The values below come from patent US12606537B2, “Thiophene derivatives” (priority 2019, dated 2026).

Like-named read-outs stand apart in the source and are kept apart here. A value given as a limit tells only on which side of the number the result lay.

The target of test [1] is T1, interaction of the PAS B domains of HIF-2α and HIF-1β (Homo sapiens, UniProt Q99814).
T1 construct: His6Gb1-TEV-GEFKGL-HIF2α (240-350aa)-G; His6 (N); Gb1 (protein G B1 domain) (N); TEV site (N)
Kind of test: AlphaScreen protein protein interaction assay. It counts as biochemical. Here is the method: For the assessment of functional disruption of the interaction of the PAS B domains of HIF-2α and HIF-1β an AlphaScreen assay was set-up. The assay was performed in 384 well light gray Perkin Elmer microtiter plates in a total volume of 7 μl. […] The detection of the protein protein interaction was performed by adding AlphaLISA® Anti-FLAG Acceptor beads (fc 20 μg/mL) and AlphaScreen® Nickel Chelate Donor beads (fc 9 μg/mL) (both Perkin Elmer) and the reaction was incubated for 240 min at 23° C. in the dark. If donor and acceptor beads get in close proximity to each other caused by interaction of HIF2alpha PAS B with HIF-1ß PAS B domain it results in a luminescence signal at 615 nm after excitation at 680 nm. The PPI disruption activity of a compound was calculated directly from the loss in Alphascreen signal. The AlphaScreen signal was measured with an Envision multimode reader (Perkin Elmer LAS Germany GmbH). The control value used was the inhibitor-free reaction. The pharmacological zero value used was determined in the absence of HIF-1ß. The inhibitory values (IC50) were calculated using Assay analyser from GeneData.
A general note: Alpha assays give light when donor and acceptor beads are brought close together.

Another test addresses T2, HIF2a (240-350)-G (Homo sapiens, UniProt Q99814).
T2 construct: The protein, HIF2a (240-350)-G, was prepared by recombinant overexpression; made in house
Kind of test: ITC (isothermal titration calorimetry) binding. Here is the method: ITC measurements were performed with a VP-ITC microcalorimeter from MicroCal/Malvern (UK). For all titration experiments the protein and the respective compounds were formulated in 30 mM HEPES buffer pH 7.5, 150 mM NaCl and 5 mM ß-mercaptoethanol. The protein, HIF2a (240-350)-G, was prepared by recombinant overexpression and multistep chromatography purification. Compounds were used from concentrated DMSO stock solutions. The final protein concentration in the injection syringe was 100 μM. Ligand stock solutions of 10 mM in DMSO were diluted to 10 μM concentrations with buffer and loaded into the sample cell. All buffers were adjusted to a final concentration of 1% (v/v) DMSO. Both, the titrate and titrant solutions were degassed prior to loading the calorimeter cell and injection syringe. […] The integrated heat data were fit with a one-site binding model to determine the apparent values for affinity, enthalpy and stoichiometry of binding.

A further test deals with HIF2α-HIF1β complex. Kind of test: Cellular mechanistic assay: 786-O HRE-luc2P reporter assay. It counts as cell-based, human. Here is the method: This reporter assay was designed to monitor binding of the HIF2α-HIF1β complex to specific DNA fragment called hypoxia response element (HRE) in physiologically relevant cell line. […] HRE is present in promoters of various genes regulated by hypoxia inducible factors. […] As a result, this reporter assay allows monitoring of HIF2α-HIF1β activity by determining the activity of produced luciferase. Cell culture is performed in RPMI media supplemented with 10% FBS, Sodium Pyruvate, Penicillin/Streptomycin, Glutamine, 200 μg/mL Hygromycin Gold.
The assay was performed in 384 well white, opaque microtiterplate with transparent bottom (Greiner Bio-one, Frickenhausen). […] 50 μl of cell suspension (2000 cells) per well were dispensed in microtiter plates and incubated over night at 37° C. in a 5% CO2 incubator. Compounds were added with Labcyte Echo dispenser (fc 0.3% DMSO, 9 concentrations dilution raw starting at 30 μM). Plates were incubated for 48 h at 37° C. in a 5% CO2 incubator. After this 45 μl of prewarmed ONE-Glo™ EX Reagent were added per well. Plates were placed on an orbital shaker at 1200 rpm for 3 minutes. Plates were sealed and luminescence was measured a Tecan Spark 20M microplate reader (end-point measurement with 0.1 second reading time). Values were normalized to DMSO ctrl and wells without cells (only medium ctrl). Decrease in luminescence directly correlates with inhibition of HIF2α activity. EC50 values and % of effect values were calculated fitting a variable-slope sigmoidal function using Ryvu Therapeutics (formerly Selvita S.A.) DRC application or GraphPad Prism software.
For orientation: In a reporter assay the amount or activity of a reporter protein is the signal.

[2] abbreviates: Homo sapiens, 786-0, 48 h, read-out: HRE-luc2P reporter assay IC50, 786-O HRE-luc2P cells, 48 h incubation, luciferase luminescence.
Where [3] appears, read: read-out: HRE-luc2P reporter assay IC50, 786-O HRE-luc2P cells, 48 h incubation, luciferase luminescence.

T1 sequence (Q99814 240-350): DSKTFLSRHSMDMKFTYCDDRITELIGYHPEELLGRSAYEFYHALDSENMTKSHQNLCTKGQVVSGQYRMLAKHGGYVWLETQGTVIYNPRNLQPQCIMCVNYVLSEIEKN
T2 sequence (Q99814 240-350): as above

As to `COC1(COc2sc(S(C)(=O)=O)c3c2CC(F)(F)[C@H]3O)CCC1` [Example 16a, (4S)-5,5-difluoro-3-methanesulfonyl-1-[(1-methoxycyclobutyl)methoxy]-4H,5H,6H-cyclopenta[c]thiophen-4-ol], the concentration for half-maximal inhibition (IC50) (usually the concentration that inhibits the measured activity by half) in test [1] was < 0.05 µM; in the test on HIF2α-HIF1β complex (setting [2]) it was > 1 µM. Besides, the Kd (in general, the equilibrium constant for the complex coming apart) on HIF2a (240-350)-G is 0.1 to 1 µM.

With `CS(=O)(=O)c1sc(OCCOC(F)(F)F)c2c1[C@H](O)C(F)(F)C2` [Example 23a, (4S)-5,5-difluoro-3-methanesulfonyl-1-[2-(trifluoromethoxy)ethoxy]-4H,5H,6H-cyclopenta[c]thiophen-4-ol], the values for the IC50 (in test [1]; in the test with HIF2α-HIF1β complex (setting [2])) were < 0.05 µM and > 1 µM, respectively.

For the compound `CS(=O)(=O)c1sc(Oc2ccc(F)c(F)c2)c2c1C(O)C(F)(F)C2` (racemic) [Example 24a, 1-(3,4-difluorophenoxy)-5,5-difluoro-3-methanesulfonyl-4H,5H,6H-cyclopenta[c]thiophen-4-ol], the IC50 (in test [1]; with HIF2α-HIF1β complex (setting [2])) was > 1 µM each time. Moreover, the Kd on HIF2a (240-350)-G was > 1 µM.

Regarding `CCOc1sc(S(C)(=O)=O)c2c1CC(F)(F)[C@H]2O` [Example 32a, (4S)-1-ethoxy-5,5-difluoro-3-methanesulfonyl-4H,5H,6H-cyclopenta[c]thiophen-4-ol], the IC50 (in test [1]; in the test on HIF2α-HIF1β complex (setting [2])) was > 1 µM each time.

With `CS(=O)(=O)c1sc(OC2CCOCC2)c2c1[C@H](O)C(F)(F)C2` [Example 22a, (4S)-5,5-difluoro-3-methanesulfonyl-1-(oxan-4-yloxy)-4H,5H,6H-cyclopenta[c]thiophen-4-ol], the IC50 in test [1] was < 0.05 µM. The dissociation constant (Kd) at HIF2a (240-350)-G was 0.1 to 1 µM.

Consider `CS(=O)(=O)c1sc(Oc2cccc(C#N)c2)c2c1[C@H](O)C(F)(F)C2` [Example 31a, 3-{[(4S)-5,5-difluoro-4-hydroxy-3-methanesulfonyl-4H,5H,6H-cyclopenta[c]thiophen-1-yl]oxy}benzonitrile], for which the concentration for half-maximal inhibition (IC50) (in test [1]; with HIF2α-HIF1β complex (setting [2])) was > 1 µM in each case. In addition, on HIF2a (240-350)-G, the Kd was > 1 µM.

On to `CS(=O)(=O)c1sc(Oc2cc(F)cc(Cl)c2)c2c1[C@H](O)C(F)(F)C2` [Example 30a, (4S)-1-(3-chloro-5-fluorophenoxy)-5,5-difluoro-3-methanesulfonyl-4H,5H,6H-cyclopenta[c]thiophen-4-ol], for which the IC50 (in test [1]; in the test on HIF2α-HIF1β complex (setting [2])) was > 1 µM throughout. At HIF2a (240-350)-G, the Kd was > 1 µM.

With `CS(=O)(=O)c1sc(OCC(F)(F)F)c2c1[C@H](O)[C@@H](F)C2` [Example 17a, (4S,5S)-5-fluoro-3-methanesulfonyl-1-(2,2,2-trifluoroethoxy)-4H,5H,6H-cyclopenta[c]thiophen-4-ol], the IC50 is < 0.05 µM in test [1] and 0.05 to 1 µM in the test with HIF2α-HIF1β complex (setting [2]).

Regarding `CS(=O)(=O)c1sc(Oc2ccc(F)cc2)c2c1[C@H](O)C(F)(F)C2` [Example 29a, (4S)-5,5-difluoro-1-(4-fluorophenoxy)-3-methanesulfonyl-4H,5H,6H-cyclopenta[c]thiophen-4-ol], the IC50 (in test [1]; with HIF2α-HIF1β complex (setting [2])) was > 1 µM each time. In addition, the Kd at HIF2a (240-350)-G is > 1 µM.

Regarding `CS(=O)(=O)c1sc(Oc2ccc(F)c(F)c2)c2c1[C@H](O)C(F)(F)C2` [Example 34a, (4S)-1-(3,4-difluorophenoxy)-5,5-difluoro-3-methanesulfonyl-4H,5H,6H-cyclopenta[c]thiophen-4-ol], the results for the IC50 (in test [1]; in the test with HIF2α-HIF1β complex (setting [2])) were 0.05 to 1 µM and > 1 µM, respectively.

For the compound `CC(Oc1sc(S(C)(=O)=O)c2c1CC(F)(F)[C@H]2O)C(F)F` (single isomer, unassigned) [Example 14a], the half-maximal inhibitory concentration (IC50) in test [1] (read-out: AlphaScreen IC50, disruption of HIF-2α / HIF-1β (ARNT) PAS B interaction, recombinant proteins 143 nM each) was < 0.05 µM; in the test with HIF2α-HIF1β complex (setting [3]) it was 0.05 to 1 µM.

Regarding `CC(Oc1sc(S(C)(=O)=O)c2c1CC(F)(F)[C@H]2O)C(F)F` (single isomer, unassigned) [Example 10a], the IC50 was < 0.05 µM in test [1] and > 1 µM in the test with HIF2α-HIF1β complex (setting [3]).

For the compound `CCC(Oc1sc(S(C)(=O)=O)c2c1CC(F)(F)[C@H]2O)C(F)(F)F` (single isomer, unassigned) [Example 9a], the half-inhibitory concentration (IC50) is < 0.05 µM in test [1] and > 1 µM in the test with HIF2α-HIF1β complex (setting [2]). For the same compound, at HIF2a (240-350)-G, the Kd is 0.1 to 1 µM.
